Test results from patent US4073938A, “19,20-Bis-nor-prostenoic acids as hypolipemic compounds” (Istituto Biochimico Italiano di Loredana Lorenzini S.a.s., priority 1974, dated 1978).
Where a name gives a salt, the structure may show the parent alone.

Legend:
[1] = Triglycerides and cholesterol in rats on Nath diet, endoperitoneal or by mouth; type: in vivo, male Sprague-Dawley rats; conditions: 1 week
Description: Treatment with 25 mg/kg/die for 1 week on male Sprague-Dawley rats of 150

ulcer induced by aspirin = assay: Anti-ulcerous activity, ulcer from aspirin (9-hydroxy sodium salt); type: in vivo, Female rats of the Wistar stock; conditions: for Ulcer scale (x ± Sx): controls 18.67 ± 3.11
Description: (§1) Also in this case the anti-ulcerous activity is tested on an ulcer induced by aspirin and by phenylbutazone. In both cases lesions of various sizes are formed in the glandular section of the stomach.
Female rats of the Wistar stock weighing 150-175 g are used. 24 hours before the start of the test the animals are made to fast, while they are allowed water at will.
Each test group consists of 12 animals. The aspirin is administered orally as a suspension (45 mg/ml of 0.5% carboxymethyl cellulose suspension, 1 ml per animal). The substance in question is administered 10 minutes before the administration of aspirin, and 21/2 hours after, each time in doses of […] of 100 mg/kg × 10 ml of distilled water. The animals are killed 5 hours after the administration of aspirin, the stomachs are extracted and with a stereomicroscope the number and size of the lesions is evaluated.

[2] = Deepness and rapidity test (untitled table 6); type: in vivo, Male Sprague-Dawley rats; conditions: 200 mg/kg endoperitoneal; for Rapidity ± E.S.: controls 3.4 ± 0.3; for Deepness (mm ± E.S.): controls 74.9 ± 6.2
Description: | Treatment with the dose of 200 mg/kg endoperitoneal, one or two hours | before sacrifice. Male Sprague-Dawley rats with an average weight of 150 | gr.

[3] = Coagulation test (Time of Quick, Time of Howel); type: in vivo, Male Sprague-Dawley rats; conditions: 200 mg/kg endoperitoneal, 2 hours before
Description: c. Coagulation test: minutes/10 ± E.S.
Coagulation test (Repetition): minutes/100 ± E.S.
(§2) Treatment with the dose of 200 mg/kg endoperitoneal, 2 hours before the test.
Male Sprague-Dawley rate 150 gr.

Glycemia test at fast = type: in vivo, Male Sprague-Dawley rats; conditions: 200 mg/kg endoperitoneal, 2 hours before the test
Description: b. Glycemia test at fast: mg/100 ml blood in toto ± E.S.
Glycemia test at fast (Repetition): mg/100 ml blood in toto ± E.S.
as §2
Male Sprague-Dawley rats 150 grs.

[4] = Triglyceridemia and cholesterolemia in rats given alcohol 10%; type: in vivo, Male Sprague-Dawley rats; conditions: 1 week endoperitoneal once daily (CPIB, BBA 200 mg/kg; C83 50 mg/kg)
Description: | Treatment for 1 week CPIB - BBA - 200 mg/kg endoperitoneal; C83 | 50mg/kg endoperitoneal; only one daily administration. | Male Sprague-Dawley rats 150 gr. | Groups of 6 rats.

[5] = tested on: smooth musculature (trachea of guinea-pig, fundal end stomach of rat, uterus of rat, portal vein of rat); assay: General pharmacology: prostaglandino-similar activity on smooth muscle preparations; conditions: 100 μg/ml
Description: The compound C83 has been tested pharmacologically in order to show a probable prostaglandino-similar activity.
The compound C83 has been studied on the above parameters:
1. Trachea of guinea-pig.
2. Strips of fundal end stomach of rat.
5. Cardiovascular effects.
This compound has been tested at the concentration of 100 μg/ml in all preparations above mentioned.

mouse = assay: LD50 by mouth in the mouse; type: in vivo
Description: (§3) a. LD50 by mouth in the mouse about 3000 mg/kg
(§4) 25 gr of XVI are dissolved in 400 ml of water with NaOH 15% to pH 9, filtered and lyophilized : 24 gr of sodium salt of XVI as a white solid are obtained, humidity (K. Fisher) 2.08%, no U.V. absorption, equivalent weight found 301.7, I.R. bands at 3400, 1765, 1565, 1460, 1420, 1378 cm^-1.
(§5) After 20 hours at 20°, the solvent is evaporated in vacuo, the residue is dissolved in 1300 ml of water treated with 120 ml of acetic acid, extracted with chloroform. After solvent evaporation, 65.1 gr of the compound XVIII are obtained, as an oil, I.R. bands at 3420, 3100, 1710 cm^-1. 35 gr of the compound XVIII are dissolved in 600 ml of water with NaOH to pH 9. The solution is filtered and lyophilized: 35.5 gr of sodium salt of 9-hydroxy-19,20-bis-nor-prostanoic acid are obtained, as white solid, humidity (K.Fisher) 1.73%, no U.V. absorption, equivalent weight found 320, I.R. bands at 3400, 3300, 1565, 1460, 1390 cm^-1, LD50 by mouth in mice about 3000 mg/kg.

[6] = LD50 by mouth in the mouse; type: in vivo; conditions: in vivo, po
Description: as §3, §4, §5

[7] = tested on: ulcer induced by phenylbutazone; assay: Anti-ulcerous activity, ulcer from phenylbutazone (9-hydroxy sodium salt); type: in vivo, Female rats of the Wistar stock
Description: as §1
Female rats of the Wistar stock weighing 170 ± 180 g are again involved. The animals are held in constant ambient conditions for at least 2 weeks before the start of the test. 24 hours before the start of the test the animals are made to fast, while they are allowed water at will.
Each test group consists of 10 animals. The substance in question is administered a first time 15 minutes before administration of phenylbutazone (200 mg/kg × 1 ml in 0.5% tragacanth gum solution orally), and a second time 21/2 hours after. The doses of the substance in question amount to 2.5, 10, 50, 100, 200 and respectively 400 mg/kg × 2 ml of 0.5% tragacanth gum solution, orally.
5 hours after the administration of phenylbutazone the animals are killed, the stomachs are extracted, fixed and with the aid of a stereomicroscope magnifying 8 times a point count evaluation is carried out. The lesions of the gastric mucosa are expressed in % of the stomach surface.

## CCCCCCC1CCC(O)C1CCCCCCC(=O)O (stereo not drawn) [Compound C83, 9-hydroxy-19,20-bis-nor-prostanoic acid sodium salt]
[1]; 25 mg/kg/die by mouth, Nath diet 134.9 ± 9.4, p<0.05 vs Nath diet
  triglycerides: 109.4 ± 6.9
[1]; 25 mg/kg/die by mouth, Nath diet 333.3 ± 29.9
  cholesterol: 380.2 ± 77.8
[1]; 25 mg/kg/die endoperitoneal, controls 72.6 ± 4.3, Nath diet 333.3 ± 29.9, p<0.001 vs Nath diet
  cholesterol: 168.3 ± 26.8
[1]; 25 mg/kg/die endoperitoneal, controls 96.9 ± 9.4, Nath diet 134.9 ± 9.4, p<0.05 vs Nath diet
  triglycerides: 91.9 ± 16.3
Ulcer induced by aspirin; 2 × 10 mg/kg, p<0.001
  Ulcer scale (x ± Sx): 4.83 ± 1.09
Ulcer induced by aspirin; 2 × 100 mg/kg, p<0.05
  Ulcer scale (x ± Sx): 8.92 ± 1.91
Ulcer induced by aspirin; both doses
  mitigation of ulcerating effect of aspirin (in words): considerably mitigates the ulcerating effect of aspirin
[2]; 1 hour before sacrifice
  Rapidity ± E.S.: 1.6 ± 0.2
  Deepness (mm ± E.S.): 29.1 ± 3.6 mm
[2]; 2 hours before sacrifice
  Rapidity ± E.S.: 3.3 ± 0.7
  Deepness (mm ± E.S.): 67.3 ± 12.6 mm
[3]; controls 25.3 ± 0.2, p < 0.001
  Time of Quick (± E.S.): 29.0 ± 0.4 minutes/10
[3]; controls 84.5 ± 1.6, p < 0.001
  Time of Howel (± E.S.): 98.8 ± 0.9 minutes/10
[3]; repetition, controls 25.8 ± 0.4, p < 0.001
  Time of Quick (Repetition) (± E.S.): 29.3 ± 0.3 minutes/100
[3]; repetition, controls 95.0 ± 1.5, p < 0.001
  Time of Howel (Repetition) (± E.S.): 118.8 ± 2.4 minutes/100
Glycemia test at fast; controls 63.8 ± 4.1, p < 0.001
  Glycemia at fast (± E.S.): 99.3 ± 2.7 mg/100 ml blood in toto
Glycemia test at fast; repetition, controls 81.1 ± 3.5, p < 0.01
  Glycemia at fast (Repetition) (± E.S.): 121.4 ± 9.8 mg/100 ml blood in toto
[4]; controls 91.5 ± 6.6, alcohol 81.0 ± 4.6
  Cholesterolemia: 56.3 ± 3.9
[4]; controls 97.8 ± 5.1, alcohol 169.0 ± 25.0
  Triglyceridemia: 85.2 ± 13.5
[5]
  action on smooth musculature: clear prolonged action on muscle on the different kinds of smooth musculature
mouse
  LD50: about 3000 mg/kg
[6]
  LD50: ~3000 mg/kg
[7]; FIG. 1
  correlation between dose and inhibition of ulcer surface area (in words): highly significant correlation between the dose and the inhibition of the surface area of the ulcer
[7]; Rattus norvegicus, po, orally, calculated from the regression lines, read-out: DE 50 (inhibition of the surface area of the ulcer)
  ED50: 37 mg/kg
[7]; orally, 2 × 2.5 mg/kg, controls 0.80 ± 3.26
  Surface area of the ulcer in % with respect to surface area of the stomach (x ± Sx): 0.57 ± 2.10%
[7]; orally, 2 × 10 mg/kg, controls 3.60 ± 3.33
  Surface area of the ulcer in % with respect to surface area of the stomach (x ± Sx): 2.13 ± 2.22%
[7]; orally, 2 × 25 mg/kg, controls 0.80 ± 3.26
  Surface area of the ulcer in % with respect to surface area of the stomach (x ± Sx): 0.33 ± 1.59%
[7]; orally, 2 × 50 mg/kg, controls 3.57 ± 3.59
  Surface area of the ulcer in % with respect to surface area of the stomach (x ± Sx): 1.30 ± 1.74%
[7]; orally, 2 × 100 mg/kg, controls 3.60 ± 3.33
  Surface area of the ulcer in % with respect to surface area of the stomach (x ± Sx): 1.97 ± 1.44%
[7]; orally, 2 × 200 mg/kg, controls 3.57 ± 3.59, p<0.02
  Surface area of the ulcer in % with respect to surface area of the stomach (x ± Sx): 0.27 ± 0.53%
